One may read the CC50 as the concentration at which the toxic effect on the cells reaches its halfway point. The term Ki denotes a dissociation constant, usually derived from enzyme kinetics or from competition with a known ligand. As usually defined, the EC50 is the concentration giving half of the maximal effect. A word on the EC90: it is the concentration at which the effect reaches the 90% level. Usually IC50 stands for the concentration needed to halve the response being measured.

SMILES strings stand for the structures. Where two headings read alike, the source gives them in different places.

In data set [1] the test system is HXB2 pseudotyped virus. As to the kind of experiment: microbe, parasite or virus in culture. Type of data set: cell-based, HIV-1. The settings on record: for Increase in IC50 (loss of activity) when compound added 2 h after virus: HXB2 pseudotyped virus.
The nature of data set [2]: Resazurin cell viability assay run concomitantly with the fusion assays. Type of data set: cell-based. The settings on record: human, TZM-bl cells, approximated.
Data set [3] has as its target T1, gp41 hydrophobic pocket (FeII(env2.0)3) (Human immunodeficiency virus type 1 group M subtype B, UniProt P04578). As to the kind of experiment: Fluorescence intensity binding affinity assay, displacement of C18FL from FeII. Details: species or system HIV-1. The settings on record: for Increase in affinity for the HP of STP ester compared to acid, change in IC50: ester vs acid.

In data set [4] the test system is HIV-1 HXB2 Env pseudotyped virus. As to the kind of experiment: Virus-cell fusion (infectivity) assay, HXB2 Env pseudotyped virus, TZM-bl cells. Type of data set: cell-based. The following applies: for EC50 / EC90 / IC50: Human immunodeficiency virus 1, HXB2, TZM-bl; for EC50: read-out: Antiviral Activity EC50; for EC90: read-out: Antiviral Activity EC90; for IC50: read-out: IC50 HXB2.

In data set [5] the test system is HIV-1 JRFL Env pseudotyped virus. As to the kind of experiment: Virus-cell fusion assay, JRFL Env pseudotyped virus. Type of data set: cell-based.
Data set [6] relates to Ampho-MLV Env pseudotyped virus. As to the kind of experiment: Virus-cell fusion assay, Ampho-MLV Env pseudotyped virus. Type of data set: cell-based.
The subject of data set [7] is HXB2 Env mediated cell-cell fusion. As to the kind of experiment: Cell-cell fusion assay, HL2/3 effector cells and TZM-bl target cells. Type of data set: cell-based, HIV-1. The settings on record: for IC50: Human immunodeficiency virus 1, HXB2, read-out: IC50 (CCF); for Potency enhancement against cell-cell fusion upon STP esterification: ester vs acid.
Data set [8] is described as follows: Aqueous solubility. Type of data set: physicochemical.
The subject of data set [9] is gp41 hydrophobic pocket metallopeptide with Lys-574 replaced with norleucine. It is filed as binding, HIV-1. The following applies: Nle-574 receptor vs Lys-574 receptor.
Data set [10] relates to TZM-bl cells. As to the kind of experiment: Resazurin cell viability assay run concomitantly with the fusion assays. Type of data set: cell-based. The following applies: at 100 µM, Ampho-MLV Env experiment. Background: Resazurin is reduced to fluorescent resorufin, in cell work by metabolically active cells.
The target of data set [11] is T1, gp41 hydrophobic pocket (FeII(env2.0)3). The settings on record: equilibrium binding to the HP; cited from earlier work.
The test system of data set [12] is HXB2 Env mediated cell-cell fusion. Details: method as in earlier work. The settings on record: cell-cell fusion assay; cited from earlier work.
In data set [13] the test system is HIV-1 HXB2 Env pseudotyped virus. Also noted: method as in earlier work. The settings on record: virus-cell fusion assay using lab adapted strain HXB2; cited from earlier work.
Setting [14] is: in antiviral assay, read-out: Antiviral Activity CC50.
Where [15] appears, read: in cell-cell fusion assay, read-out: Inhibition of Cell-Cell Fusion CC50.
[16] abbreviates: ester vs acid, pseudoviral infectivity.

T1 sequence (P04578 565-584): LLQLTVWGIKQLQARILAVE

As to `CCOC(=O)c1cc(O)n(-c2ccc(C(=O)Oc3c(F)c(F)c(S(=O)(=O)O)c(F)c3F)cc2)n1` [Compound 3-STP], in data set [1] (Human immunodeficiency virus 1, HXB2, 2 h, read-out: Residual activity when added after 2 h), the activity at 40 µM was found to be 12%. Moreover, the CC50 in data set [2] (setting [14]) is more than 40 µM. In addition, the cytotoxic concentration (CC50) in data set [2] (setting [15]) was more than 40 µM. For the same molecule, in data set [3], the inhibition constant (Ki) was approximately 20 µM and the “Increase in affinity for the HP of STP ester compared to acid, change in IC50” value (from here on “Increase in affinity for the HP … change in IC50”) is on record as 10 fold. Moreover, in data set [4], the EC50 came out at 9 ± 2 µM and the EC90 was found to be 44 ± 15 µM. The “Improvement of antiviral activity (EC50) by STP esterification” value (shortened to “Improvement of antiviral activity (EC50)”) in data set [4] (setting [16]) is given as more than 10 fold. Further, the “Reduction in efficacy against JRFL Env compared to HXB2 Env” value in data set [5] is reported as 4 fold. Besides, the “Activity against Ampho-MLV Env pseudotyped particles” value in data set [6] is reported as “no activity”.

As to `Cn1ncc2ccc(-c3ccc4cnn(Cc5ccc(F)c(C(=O)O)c5)c4c3)cc21` [Compound 2], the “Increase in IC50 (loss of activity) when compound added 2 h after virus” value (“Increase in IC50 (loss of activity)” for short) in [1] is 2 fold. In addition, the cytotoxic concentration (CC50) in data set [2] (setting [14]) was not below 356 µM. Further, the CC50 in [2] (setting [15]) is not below 113 µM. In addition, in data set [3], the affinity corresponds to a Ki of 25 ± 5 µM and the “Increase in affinity for the HP … change in IC50” value is given as 3 fold. For the same molecule, in data set [4], the EC50 was 35 ± 7 µM, the concentration for an effect of 90% (EC90) came to 800 ± 190 µM and the half-maximal inhibitory concentration (IC50) amounted to 35 µM. In addition, the “Improvement of antiviral activity (EC50)” value in data set [4] (setting [16]) was 7 fold. Besides, in data set [7], the IC50 was not below 50 µM and the “Potency enhancement against cell-cell fusion upon STP esterification” value was 7 fold.

Take `Cc1ccnc2c1NC(=O)c1cccnc1N2C1CC1` [nevirapine, reference compound]: in data set [1], the “Increase in IC50 (loss of activity)” value turned out to be 2.7 fold.

In the case of `c1cc(CN2CCCNCCNCCCNCC2)ccc1CN1CCCNCCNCCCNCC1` [AMD3100, reference compound], the “Residual efficacy when added 2 h after virus” value in data set [1] (at 50X EC50) is on record as 5%.

With `CCOC(=O)c1cc(O)n(-c2ccc(C(=O)O)cc2)n1` [Compound 3], the Aqueous solubility result in data set [8] is listed as “high aqueous solubility”. The CC50 in [2] (setting [14]) is more than 100 µM. Moreover, in data set [2] (setting [15]), the CC50 was more than 100 µM. In addition, in data set [3], the inhibition constant (Ki) stood at 177 ± 12 µM and the “Increase in affinity for the HP … change in IC50” value stood at 10 fold. In addition, in data set [4], the EC50 was more than 100 µM and the IC50 is more than 100 µM. For the same molecule, in [4] (setting [16]), the “Improvement of antiviral activity (EC50)” value is given as “greater than 10 fold”. In addition, in data set [4] (virus-cell fusion assay using lab adapted strain HXB2), the “IC50 HXB2” value is recorded as “No measurable antiviral potency”. For the same molecule, the concentration for half-maximal inhibition (IC50) in data set [7] is more than 100 µM.

Take `Cn1ncc2ccc(-c3ccc4cnn(Cc5ccc(F)c(C(=O)Oc6c(F)c(F)c(S(=O)(=O)O)c(F)c6F)c5)c4c3)cc21` [Compound 2-STP]: the “Increase in IC50 on Nle-574 substitution” value in data set [9] worked out at 2.2 fold. Besides, the “Increase in IC50 (loss of activity)” value in [1] was determined as 14 fold. Also, in data set [2] (setting [14]), the CC50 is not below 100 µM. In data set [2] (setting [15]), the CC50 was not below 200 µM. The molecule also came in with a Cytotoxicity in data set [10] of 40%. For the same molecule, in data set [3], the Ki was approximately 10 µM and the “Increase in affinity for the HP … change in IC50” value is reported as 3 fold. For the same molecule, in data set [4], the concentration giving a half-maximal response (EC50) stood at 5 ± 4 µM and the EC90 came to 59 ± 22 µM. Besides, the “Improvement of antiviral activity (EC50)” value in [4] (setting [16]) amounted to 7 fold. The “Reduction in efficacy against JRFL Env compared to HXB2 Env” value in data set [5] is 2 fold. In addition, in data set [6], the “Activity against Ampho-MLV Env pseudotyped particles” value is on record as “artifact of the 40% cytotoxicity at 100 µM”.

In the case of `COC(=O)c1cccc(Cn2ccc3ccc(-c4ccc5ccn(Cc6cccc(C(=O)Oc7c(F)c(F)c(S(=O)(=O)O)c(F)c7F)c6)c5c4)cc32)c1` [Compound 1-STP], the “Increase in KI on replacing Lys-574 with norleucine” value in data set [9] was determined as 6 fold. Also, the “Increase in IC50 (loss of activity)” value in data set [1] was determined as 14 fold. Besides, in data set [2] (setting [14]), the CC50 is 20 ± 3 µM. Moreover, in data set [2] (setting [15]), the cytotoxic concentration (CC50) was more than 10 µM. In data set [4], the EC50 turned out to be 0.3 ± 0.2 µM and the 90% effect concentration (EC90) was found to be 2.9 ± 1.6 µM. In [4] (setting [16]), the “EC90 difference, STP ester compared to acid” value was found to be 14 fold and the “Improvement of antiviral activity (EC50)” value amounted to 10 fold.

With `COC(=O)c1cccc(Cn2ccc3ccc(-c4ccc5ccn(Cc6cccc(C(=O)O)c6)c5c4)cc32)c1` [Compound 1], the “Increase in KI on replacing Lys-574 with norleucine” value in data set [9] is given as 5 fold. Further, the Ki in data set [11] is 1 ± 0.5 µM. Moreover, the “Increase in IC50 (loss of activity)” value in data set [1] is 2 fold. In addition, the 50% cytotoxic concentration (CC50) was 22 ± 3 µM in data set [2] (setting [14]) and more than 10 µM in data set [2] (setting [15]). The “Increase in affinity for the HP … change in IC50” value in data set [3] is on record as “no change”. In addition, the half-maximal effective concentration (EC50) in data set [4] turned out to be 3.2 ± 1.6 µM. Besides, the 90% effect concentration (EC90) in data set [4] stood at 17 ± 13 µM. The “Improvement of antiviral activity (EC50)” value in data set [4] (setting [16]) is “greater than 10 fold”. Also, the IC50 in [12] is 0.4 µM; in data set [13] it was 3 µM. Besides, the “Potency enhancement against cell-cell fusion upon STP esterification” value in [7] is “about 2 fold”.

The values are drawn from PMC9784957 (Viruses, 2022).
